Reference: patent US12582638B2, “Pharmaceutical composition for treating cancer, containing mTOR-signaling inhibitor as active ingredient” (KOREA ADVANCED INSTITUTE OF SCIENCE AND TECHNOLOGY, priority 2020, dated 2026)

Tests used:
[1] = tested on: COV434; experiment: Cell viability, CellTiterGlo, 72 hours; assay type: cell-based; conditions: COV434 cells, Ovary
Procedure: In addition to the colorectal cells, 120 cancer cell lines treated with various concentrations of lomitapide were assayed for viability.
To analyze cell viability, the cells were incubated with lomitapide at 37° C. for 72 hours in a 5% or 10% CO2 atmosphere and then equilibrated at room temperature for 1 hour, followed by addition of CellTiterGlo reagent (Promega). One hour later, luminescence was measured to calculate cell viability (%). The 120 cell lines were purchased from ATCC (American Type Culture Collection, Virginia, USA).

[2] = tested on: p-S6K, p-S6, LC3; experiment: Cell signaling assay, western blot, HT29; assay type: cell-based, human; conditions: 0, 5, and 10 μM, FIG. 7b
Procedure: (§1) Cells treated with various concentrations (0, 5, and 10 μM) of lomitapide were lysed with RIPA buffer containing a protease-inhibitor cocktail. The whole-cell lysate was incubated on ice for 30 minutes. After centrifugation at 4° C. and 13,300×g for 15 minutes, the supernatant was collected. For use as controls, HCT116, SW480, HT29, MDA-MB-231, and MDA-MB-468 cells were treated with 1 μM of torin, known as an mTOR inhibitor.
(§2) For western blot analysis, the supernatant was loaded onto 10% SDS-PAGE gel. The separated proteins were blotted onto a PVDF membrane. Then, the blots were incubated with antibodies at 4° C. for 12 hours as follows (Table 2).
(§3) Then, the blots were washed with TBST (a mixture of tris-buffered saline (TBS) and Tween 20), incubated with horseradish peroxidase-conjugated secondary antibody (Cell signaling) at 37° C. for 1 hour, and washed, followed by detecting enhanced chemiluminescence (ECL; Amersham).

[3] = tested on: immunocytes (CD4+, CD4+/CD44+, CD8+, CD8+/IFNη, Foxp3, NK, and NK/IFNγ); experiment: Immunocyte analysis in MC38 homograft model; assay type: in vivo, mouse; conditions: lomitapide alone
Procedure: (§4) For mouse homograft tumor model, experiments were conducted using female C57B6/N mice (wild-type, 6 weeks old) with MC38 colorectal cancer and B16F10 melanoma cell lines. MC38 colorectal cancer and B16F10 melanoma cell lines were each subcutaneously injected at a dose of 2×10^5 cells. Lomitapide used in the two models was formulated with 45% saline, 40% PEG300, 5% Tween-80, and 10% DMSO.
From 10 days after the DMC38 colorectal cancer cells injection, lomitapide was intraperitoneally injected five times at a dose of 20 mg/kg, and anti-PD-1 mAb (clone RMP1-14, BioXCell, West Lebanon, NH, USA) or rat IgG2a iso-type control (clone 2A3, BioXCell, BE0089) in PBS was administered at a dose of 10 mg/kg at days 1, 4, 7, and 10 (FIGS. 18a and 18b).
In addition, MC38 colorectal cancer cells were analyzed for immunocytes (CD4+, CD4+/CD44+, CD8+, CD8+/IFNη, Foxp3, NK, and NK/IFNγ).

[4] = tested on: B16F10 melanoma; experiment: Mouse homograft tumor model, B16F10 melanoma; assay type: in vivo; conditions: B16F10 in C57B6/N mice
Procedure: as §4
For B16F10 skin melanoma, from 10 days after the tumor injection, lomitapide was intraperitoneally injected at a dose of 40 mg/kg three times at days 3, 5, and 7, and anti-PD-1 mAb (clone RMP1-14, BioXCell, West Lebanon, NH, USA) or rat IgG2a iso-type control (clone 2A3, BioXCell, BE0089) was administered at a dose of 20 mg/kg at days 1, 3, 5, and 7. The mice were euthanized immediately when signs of pain were observed, the body weight was reduced by 20% compared to the normal weight, or the tumor volume exceeded 1,000 mm^3 (FIGS. 19a and 19b).

[5] = tested on: HCT116 cells; experiment: Cell colony forming assay (crystal violet); assay type: cell-based, human; conditions: 5 μM, 48 hours, vs wells treated without lomitapide
Procedure: To examine relationship between lomitapide and cancer cell colony forming rate in HCT116 cells, cancer cell colony forming rates were measured after addition of limitapide to HCT116 cells cultured in wells.
HCT116 cells were seeded at a density of 10^5 cells/well into 12-well plates and incubated 37° C. for 24 hours. Subsequently, the cells were incubated with 0 and 5 μM lomitapide at 37° C. for 48 hours in a 5% CO2 atmosphere. Then, 500 μL of crystal violet was added to each well and incubated at room temperature for 10 minutes to stain the cells. From the staining data, the cells were analyzed for growth rate.

[6] = tested on: HCT116 cells; experiment: HCT116 mouse xenograft model, tumor size; assay type: in vivo; conditions: BALB/c nude mice; 50 mg/kg or 25 or 50 mg/kg intraperitoneally, or 10 mg/kg intratumorally; vs DMSO control; FIG. 14
Procedure: Lomitapide was examined for anticancer effect in tumor-implanted mice by monitoring tumor sizes in the mouse xenograft model after treatment with lomitapide.
Animal experiments were conducted according to the guideline approved by the institutional animal care and use committee in the Korean Advanced Institute of Science and Technology. HCT116 cells (4×10^6) were injected subcutaneously into male BALB/c nude mice at 8-12 weeks of age. After an average tumor volume reached 50 mm^3, the mice were randomly divided into two groups (5 mice/group). The mice were measured for weight and tumor size every two days. Tumor sizes were measured using calipers and determined according to formula 0.5×(width)^2×(Length). P-values were determined using Student's T test. Lomitapide was intraperitoneally injected at a dose of 50 mg/kg into the mice at days 1, 2, 3, 7, 8, 9, 13, 14, 15, and 16 after start of the experiment. For a control, DMSO was injected intraperitoneally into the mice (FIG. 14a).
An additional animal experiment was conducted. Lomitapide was intraperitoneally injected at a dose of 25 or 50 mg/kg into mice five times every two days after start of the experiment. Intraperitoneal injection of DMSO into mice was conducted for a control (FIG. 14b). […]

[7] = tested on: p-S6K, p-S6, LC3; experiment: Cell signaling assay, western blot, MDA-MB-231; assay type: cell-based, human; conditions: 0, 5, and 10 μM, FIG. 7c
Procedure: as §1, §2, §3

[8] = tested on: p-AKT, p-mTOR, p-S6K, p-S6; experiment: Cell signaling assay, western blot, HCT116; assay type: cell-based, human; conditions: 0, 5, and 10 μM, dose-dependent, FIG. 6
Procedure: as §1, §2, §3

SMILES: O=C(NC1CCN(CCCCC2(C(=O)NCC(F)(F)F)c3ccccc3-c3ccccc32)CC1)c1ccccc1-c1ccc(C(F)(F)F)cc1 [lomitapide, N-(2,2,2-trifluoroethyl)-9-[4-[4-[[[4′-(trifluoromethyl)[1,1′-biphenyl]2-yl]carbonyl]amino]-1-piperidinyl]butyl]-9H-fluoren-9-carboxamide]
- IC50 [1]: 3.1 µM
- conversion from LC3I into LC3II [2]: increased induction of conversion from LC3I into LC3II
- phosphorylation levels of target proteins (p-S6K and p-S6) [2]: remarkably decreased phosphorylation levels
- level of CD4+ immunocytes vs group treated with anti-PD-1 mAb alone [3]: superior
- level of CD4+/CD44+ immunocytes vs group treated with anti-PD-1 mAb alone [3]: similar
- level of CD8+ immunocytes vs group treated with anti-PD-1 mAb alone [3]: similar
- level of CD8+/IFNη immunocytes vs group treated with anti-PD-1 mAb alone [3]: similar
- level of Foxp3 immunocytes vs group treated with anti-PD-1 mAb alone [3]: similar
- level of NK immunocytes vs group treated with anti-PD-1 mAb alone [3]: superior
- level of NK/IFNγ immunocytes vs group treated with anti-PD-1 mAb alone [3]: superior
- tumor growth compared to the groups treated with the anti-PD-1 mAb ([4]; lomitapide 40 mg/kg i.p., anti-PD-1 mAb 20 mg/kg): greatly suppressed and reduced
- tumor growth compared to the control ([4]; lomitapide 40 mg/kg intraperitoneally three times): significantly suppressed and reduced tumor growth
- growth rate (colony forming) [5]: remarkably lower in growth rate
- tumor growth (tumor size) [6]: grow slowly, compared to the control
- conversion from LC3I into LC3II [7]: increased induction of conversion from LC3I into LC3II
- phosphorylation levels of target proteins (p-S6K and p-S6) [7]: remarkably decreased phosphorylation levels
- phosphorylation of target proteins levels (p-AKT, p-mTOR, p-S6K, p-S6) [8]: decreased phosphorylation
